In brackets after ≈: the same amount, converted by molar mass. Activity calls are given as the source filed them. The rule behind the calls is not given here.
Key:
[1] = Equilibrium solubility in pH 6.8 buffer at 1 mM after 16 hrs by HPLC based shake flask method; assay type: physicochemical
Estrogen receptor = biological target: T1, Estrogen receptor (Homo sapiens, UniProt P03372); assay: Induction of selective estrogen receptor alpha degradation in human MCF7 cells harboring TK-ERE-Luc assessed as reduction in estradiol-induced transcriptional activity after 24 hrs by luciferase reporter gene assay; assay type: cell-based
T1 sequence (P03372 whole entry): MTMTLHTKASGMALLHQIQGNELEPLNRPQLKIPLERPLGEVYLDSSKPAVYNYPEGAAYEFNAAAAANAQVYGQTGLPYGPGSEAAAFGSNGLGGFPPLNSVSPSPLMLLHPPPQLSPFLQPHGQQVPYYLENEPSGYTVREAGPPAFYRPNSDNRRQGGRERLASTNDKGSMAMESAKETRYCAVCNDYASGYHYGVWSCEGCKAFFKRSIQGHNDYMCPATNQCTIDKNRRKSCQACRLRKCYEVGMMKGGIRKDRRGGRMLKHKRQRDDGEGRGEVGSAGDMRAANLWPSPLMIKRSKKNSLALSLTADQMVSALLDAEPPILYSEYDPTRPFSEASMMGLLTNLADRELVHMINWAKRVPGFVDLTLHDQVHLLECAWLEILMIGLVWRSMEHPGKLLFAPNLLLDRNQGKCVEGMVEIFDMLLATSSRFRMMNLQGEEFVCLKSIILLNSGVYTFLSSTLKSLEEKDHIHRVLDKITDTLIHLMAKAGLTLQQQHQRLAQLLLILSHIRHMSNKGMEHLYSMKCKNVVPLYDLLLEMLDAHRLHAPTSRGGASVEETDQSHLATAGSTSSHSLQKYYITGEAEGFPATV

[2] = Cmax in C57BL/6 mouse at 3 mg/kg, po; assay type: ADME, organism-based; design: dose 3 mg/kg, route oral; details: in vivo
[3] = Clearance in C57BL/6 mouse at 1 mg/kg, iv or 3 mg/kg, po; assay type: ADME, organism-based; details: in vivo
[4] = Oral bioavailability in C57BL/6 mouse at 3 mg/kg; assay type: ADME, organism-based; details: in vivo
[5] = Oral bioavailability in Sprague-Dawley rat at 3 mg/kg; assay type: ADME, organism-based; details: in vivo
[6] = Clearance in Sprague-Dawley rat at 1 mg/kg, iv or 3 mg/kg, po; assay type: ADME, organism-based; details: in vivo
[7] = Cmax in Sprague-Dawley rat at 3 mg/kg, po; assay type: ADME, organism-based; design: dose 3 mg/kg, route oral; details: in vivo
MCF7 [8] = assay: Antiproliferative activity against human MCF7 cells after 6 days in presence of estradiol by CellTiter-Glo assay; details: MCF7, 144 h
Mus musculus [9] = assay: Downregulation of progesterone receptor mRNA level in NOD SCID gamma mouse xenografted with human MCF7 cells at 5 mg, sc administered once in a week for 48 days post tumor implantation measured 7 hrs post last dose by RT-PCR method; assay type: functional, organism-based
Mus musculus [10] = assay: In vivo inhibition of ER protein level in NOD SCID gamma mouse xenografted with human MCF7 cells at 5 mg, sc administered once in a week for 48 days post tumor implantation measured 7 hrs post last dose by Western blot method relative to control; assay type: functional
MCF7 [11] = assay: Antitumor activity against human MCF7 cells xenografted in NOD SCID gamma mouse assessed as change in tumor volume at 5 mg, sc administered once in a week for 48 days post tumor implantation measured 7 hrs post last dose; assay type: functional

Row | SMILES | solubility thermodynamic at 16 h, 1000 µM [1] [µM] | Cmax [2] [nM] | clearance [3] [mL/min/kg] | bioavailability [4] [%] | further results
1 | NC(=O)/C=C/c1ccc(Oc2c(-c3ccc(O)cc3)sc3cc(O)ccc23)cc1 | < 5 | – | – | – | –
2 | Oc1ccc(-c2sc3cc(O)ccc3c2Oc2ccc(/C=C/c3nnn[nH]3)cc2)cc1 | 190 (≈ 81.4 µg/mL) | – | – | – | IC50 (Estrogen receptor): 219 nM
3 | O=C(O)/C=C/c1ccc(Oc2c(-c3ccc(F)cc3C(F)(F)F)sc3cc(O)ccc23)cc1 | – | 1500 | 18 | 30 | –
4 | O=C(/C=C/c1ccc(Oc2c(-c3ccc(O)cc3)sc3cc(O)ccc23)cc1)NCCO | 11 (≈ 4.92 µg/mL) | – | – | – | –
5 | CC(F)(F)c1ccccc1-c1sc2cc(O)ccc2c1Oc1ccc(/C=C/C(=O)O)cc1 | – | 187 | 14 | 5 | –
6 | CNC(=O)/C=C/c1ccc(Oc2c(-c3ccc(O)cc3)sc3cc(O)ccc23)cc1 | < 5 | – | – | – | –
7 | Cc1cc(F)ccc1-c1sc2cc(O)ccc2c1Oc1ccc(/C=C/C(=O)O)cc1 | – | 925 | 33 | 34 | –
8 | O=C(O)CCc1ccc(Oc2c(-c3ccc(O)cc3)sc3cc(O)ccc23)cc1 | > 1000 | – | – | – | –
9 | O=C(O)/C=C/c1ccc(Oc2c(-c3ccc(C(F)(F)F)cc3)sc3cc(O)ccc23)cc1 | – | 1380 | 6 | 28 | bioavailability [5]: 74%; clearance [6]: 30 mL/min/kg; Cmax [7]: 985 nM
10 | CC/C(=C(\c1ccc(O)cc1)c1ccc(OCCN(C)C)cc1)c1ccccc1 [AFIMOXIFENE] | – | – | – | – | IC50 (MCF7 [8]): 9.9 nM
11 | C[C@]12CC[C@@H]3c4ccc(O)cc4C[C@@H](CCCCCCCCC[S+]([O-])CCCC(F)(F)C(F)(F)F)[C@H]3[C@@H]1CC[C@@H]2O (stereo not given in full) [FULVESTRANT] | – | – | – | – | Activity (Mus musculus [9]): Active; inhibition (INH) (Mus musculus [10]): 67%; T/C (MCF7 [11]): 24%
